Values of other authors in patent publication US20100056426A1, “USE OF IRON CHELATOR FOR THE TREATMENT OF MYOCARDIAL INFARCTION” (NOVARTIS AG, priority 2007, published 2010).
Read-outs that look alike come from different tables or passages of the source.

Assays:
[1] = model systems; Hershko et al., Blood 2001
[2] = humans; Nisbet Brown et al., Lancet 2003

SMILES: O=C(O)c1ccc(-n2nc(-c3ccccc3O)nc2-c2ccccc2O)cc1 [4-[3,5-bis-(2-hydroxyphenyl)-[1,2,4]-triazol-1-yl]benzoic acid]
- selective removal of iron [1]: effective in the selective removal of iron
- selective removal of iron [2]: effective in the selective removal of iron
